Among the test systems are HOP-18; M19-MEL; XF498; DMS-114; KM-20L2; DLD-1; BT-549; RXF 631; DMS-273.
Holding throughout (assay): NCI-60 cell line screen, 48 h

This note sets out measurements from ChEMBL document CHEMBL1201862, “PubChem BioAssay data set” (2004).

The structures appear in SMILES notation.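 These data come from cells grown in 96-well plates and exposed to compound for 48 hours at five concentrations. The concentration for 50% growth inhibition is given as GI50.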 Active and inactive are the calls of the source. No stated cut-off is given here; in the data, active = GI50 up to about 1.1 µM and inactive = higher.

Consider `COc1cccc2c1[C@H]1CO[C@H]3C4C[C@H](C(=O)O)C([C@@H](C2)N13)N4C` (stereo partly drawn), for which the GI50 is 6.12 µM (inactive) in the test on HOP-18; 3.64 µM (inactive) with M19-MEL; 2.08 µM (inactive) with XF498; 2.22 µM (inactive) with DMS-114; 3.24 µM (inactive) in the test on KM-20L2; 2.84 µM (inactive) with DLD-1. In addition, the GI50 in the test with BT-549 is 0.116 µM (active); with RXF 631 it was > 10 µM (inactive); with DMS-273, 3.6 µM (inactive).
For the molecule `O=C1COc2cc3c(cc2N1)SCCC(=O)N3`, the GI50 with HOP-18, with M19-MEL, in the test on XF498, in the test on DMS-114, in the test with DLD-1 and with RXF 631 was > 100 µM (inactive) in each case. In addition, the GI50 in the test with DMS-273 was > 100 µM (inactive).
Turning to `FC1OC2OC1C(OCc1ccccc1)C(OCc1ccccc1)C2OCc1ccccc1` (stereo not drawn), the GI50 is 24.3 µM (inactive) in the test with HOP-18; 29.8 µM (inactive) in the test on M19-MEL; 23.6 µM (inactive) in the test on XF498; 29.5 µM (inactive) in the test with DMS-114; 42.8 µM (inactive) in the test on KM-20L2; 37.9 µM (inactive) in the test on DLD-1. The GI50 is 71.1 µM (inactive) in the test with RXF 631 and > 100 µM (inactive) in the test with DMS-273.
As to `C/C(=N\NC(=[Se])N(C)C)c1ccccn1`, the GI50 in the test with HOP-18 was 2.1 µM (inactive); in the test on M19-MEL, 0.339 µM (active); with XF498, 0.198 µM (active); in the test on DMS-114 it was < 0.01 µM (active); with KM-20L2, < 0.01 µM (active); in the test on DLD-1 it was < 0.01 µM (active). Moreover, the GI50 with BT-549 was 7.31 µM (inactive); in the test on RXF 631, < 0.01 µM (active); with DMS-273, 0.316 µM (active).
